Measured values reported in US9266840B2, “Bicyclic heterocyclic compound” (Astellas Pharma Inc., priority 2011, dated 2016).
Like-named read-outs stand apart in the source and are kept apart here.

How the values were obtained:
[1] = target: T1, recombinant human 11β-HSD1 (Homo sapiens, UniProt P28845); test: Human 11β-HSD1 inhibitory activity (HTRF cortisol detection); assay type: biochemical; details: recombinant human 11β-HSD1, 200 nM cortisone, 40 μM NADPH, 1 h room temperature
T1 construct: made in house
Procedure: (§1) Test Method 1: Test for Measuring Human 11β-HSD1/11β-HSD2 Inhibitory Activity
(§2) 11β-HSD1 inhibitory activity was measured in the following order. In addition, an enzymatic reaction and assay was performed using a 384-well plate. The enzyme was prepared according to a document (Walker E. A. et al., Journal of Biological Chemistry, 2001, Vol. 276, p. 21343-21350). The reaction was performed in a manner in which various concentrations of test compounds were added to a reaction liquid including a 10 mM a phosphoric acid buffer (pH 6.6), 200 nM cortisone, 40 μM reduced nicotinamide adenine dinucleotide phosphate (NADPH), and recombinant human 11β-HSD1, followed by incubation for an hour at room temperature (10 μl/well). The test compound was dissolved in dimethylsulfoxide (DMSO), and the DMSO concentration was adjusted so as to be 1% in the reaction liquid. After the enzymatic reaction, cortisol was detected using Homogenous Time-Resolved Fluorescence (HTRF) to measure enzyme inhibitory activity. XL-665-labeled cortisol including 400 μM carbenoxolone and a cryptate-labeled cortisol antibody (CIS bio international) were added respectively to the plate at 5 μl/well, followed by incubation for 2 hours at room temperature, and then fluorescence intensity was measured using a fluorospectrometer (trade name: Discovery, manufactured by PerkinElmer Inc.), thereby calculating enzyme inhibitory activity from the ratio of fluorescence intensity between two wavelengths (665 nm/620 nm).
(§3) The results of measurement were calculated by obtaining the average of the values of three wells under the same condition. The ratio obtained when DMSO was added instead of the test compound was regarded as 0%, and the ratio obtained when 11β-HSD1 or 11β-HSD2 was not added was regarded as 100%, whereby a concentration at which the test compound suppresses the enzyme activity by 50% was calculated as IC50 of the inhibitory activity of the compound.

[2] = target: T2, recombinant human 11β-HSD2 (Homo sapiens, UniProt P80365); test: Human 11β-HSD2 inhibitory activity (HTRF); assay type: biochemical; details: recombinant human 11β-HSD2, 200 nM cortisol, 200 μM NAD, 2 h 37° C.
T2 sequence (P80365 1-405): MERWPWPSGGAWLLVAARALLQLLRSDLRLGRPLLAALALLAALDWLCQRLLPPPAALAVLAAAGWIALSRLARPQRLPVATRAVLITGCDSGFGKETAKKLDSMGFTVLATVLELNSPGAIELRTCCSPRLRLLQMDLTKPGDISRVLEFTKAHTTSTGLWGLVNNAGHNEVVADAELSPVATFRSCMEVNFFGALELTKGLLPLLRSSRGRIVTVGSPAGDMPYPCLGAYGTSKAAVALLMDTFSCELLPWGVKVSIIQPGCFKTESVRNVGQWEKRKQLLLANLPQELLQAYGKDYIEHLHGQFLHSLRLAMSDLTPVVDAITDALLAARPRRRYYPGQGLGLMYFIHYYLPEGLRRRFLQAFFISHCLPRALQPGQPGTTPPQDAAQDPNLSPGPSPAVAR
Procedure: as §1, §2
11β-HSD2 inhibitory activity was measured in the same manner as in the measurement of the 11β-HSD1 inhibitory activity, except for the conditions of the enzymatic reaction. The enzymatic reaction was performed in the manner in which various concentrations of test substances were added to a reaction liquid including 40 mM tris-hydrochloric acid buffer (Tris-HCl) (pH 8.0), 200 nM cortisol, 200 μM nicotinamide adenine dinucleotide (NAD), and recombinant human 11β-HSD2, followed by incubation for 2 hours at 37° C. (10 μl/well).
as §3

[3] = test system: spontaneous alternation behavior disorder induced by scopolamine; test: Test for spontaneous alternation behavior disorder induced by scopolamine (Y-maze); assay type: in vivo, male ddY mice; details: oral administration, ddY mice, scopolamine 0.5 mg/kg i.p.
Procedure: Test Method 2: Test for Spontaneous Alternation Behavior Disorder Induced by Scopolamine Test drugs were orally administered to 5- to 7-week old male ddY mice. 10 minutes later, scopolamine was intraperitoneally administered to the animals at 0.5 mg/kg. 20 minutes later, the animal was put in Y-maze having arms with the same length and extending in three directions and allowed to freely explore for 8 minutes. During the exploration, spontaneous arm-alternating behavior (entering different arms 3 times consecutively) was counted to calculate the rate of spontaneous alternation (spontaneous alternation behavior/(number of times of entering−2)×100), thereby judging drug efficacy.

[4] = test system: spinal nerve ligation model; test: Test for spinal nerve ligation model (von Frey hair test); assay type: in vivo, rats (SD, male); details: 1 mg/kg orally, 1 hour before evaluation, threshold of 50% retraction response, pseudo-operation = 100%, solvent = 0%
Procedure: Test Method 3: Test for Spinal Nerve Ligation Model This test was performed according to Pain, 1992, Vol. 50, p 355-363. The skin and muscle in the lumbar region of rats (SD, male, 5- to 6-week old) were excised under pentobarbital anesthesia, and a lumbar L6 transverse process was removed to expose lumbar nerves. L5 and L6 spinal nerves were ligated with a silk thread, and then the wound was sutured. The procedure was performed in the left side. In addition, in the case of pseudo-operation, the wound was sutured without performing nerve ligation. The drug efficacy was evaluated on the postoperative days 7 to 12 by von Frey hair test. The threshold of retraction response was calculated according to Journal of Neuroscience Methods, 1994, Vol. 53, p 55-63. By using 8 types of von Frey filaments (0.41 g to 15.14 g), the sole of the rat's hindlimb was stimulated, and the threshold of 50% retraction response was determined by an up-and-down method. […] The test substance was evaluated by calculating the improvement rate of the test substance-administered group, under the condition that the threshold of the procedure-performed limb of the pseudo-operation animal group was regarded as 100% and the threshold of the procedure-performed limb of the solvent-administered animal group having undergone operation was regarded as 0%.

[5] = test system: model with fibromyalgia caused by repeated reserpine administration; test: Test for model with fibromyalgia caused by repeated reserpine administration (muscle tenderness threshold); assay type: in vivo, rats (SD, male); details: 10 mg/kg orally, calculated point in time 60 min, healthy rat = 100%, reserpine + solvent = 0%
Procedure: Test Method 4: Test for Model with Fibromyalgia Caused by Repeated Reserpine Administration
This test was performed according to Pain, 2009, Vol. 146, p 26-33., by using rats (SD, male, 7-week old).
The threshold of muscle tenderness was measured according to the method of Schafers et al. (Pain, 2003, Vol. 104, p 579-588). A pressure stimulus slowly increasing up to 250 g was applied to the gastrocnemius muscle of the right lower leg of the rat. […] The measurement was performed 3 times for each point in time, and the average thereof was taken as a measured value.
A solvent (0.5% aqueous acetic acid) or reserpine (1 mg/kg) was subcutaneously administered to the back of the rat once a day for three days. The dose of both the solvent and reserpine administered was 1 mL per 1 kg of the body weight of the animal. 6 days after the beginning of the administration of the solvent or reserpine, the muscle tenderness threshold of each rat was measured, and the rats were grouped such that the difference in the average of threshold between the respective groups was reduced. The drug efficacy evaluation was performed on the next day. […] 30, 60, and 120 minutes after the administration, the muscle tenderness threshold was measured. For healthy rats, the drug was not administered, and only the muscle tenderness threshold was measured. […]

[6] = Pharmacokinetic test (plasma and brain concentration, LC-MS/MS); assay type: in vivo; details: male, mouse, po, mice, 1 mg/kg orally, an hour after administration
Procedure: Test Method 5: Pharmacokinetic Test
A 0.5% methyl cellulose suspension including the test substance was orally administered to 5-week old male mice, and the blood and brain were collected after a certain time passed from the administration. The collected blood sample was treated with sodium heparin, and then the plasma was separated, thereby preparing a plasma sample. In addition, a phosphoric acid buffer (pH 7.0) was added to the collected brain sample, in an amount that was 4 times the weight of the brain, thereby preparing 20% brain homogenate. The concentration of the respective test substances in the plasma and brain was measured using LC-MS/MS. An hour after Example 8-1 was administered at 1 mg/kg, the concentration of the substance in the plasma was 153 ng/ml, and the concentration in the brain was 58 ng/ml.

[7] = test system: cortisol in the brain homogenate; test: Pharmacokinetic test under cortisone load (brain cortisol by ELISA); assay type: in vivo, male ddY mice; details: Mus musculus; ddY mice, 1 mg/kg orally; cortisone 1 mg/kg i.p. after 30 min, brain collected 20 min later; read-out: inhibition rate (cortisol in brain)
Procedure: Test Method 6: Pharmacokinetic Test Under Cortisone Load
A 0.5% methyl cellulose solution or a 0.5% methyl cellulose suspension including the test substance was orally administered to 5-week old male ddY mice. After 30 minutes, cortisone was intraperitoneally administered at 1 mg/kg, and 20 minutes later, the brain was collected. A phosphoric acid buffer (pH 7.0) was added to the collected brain sample, in an amount that was 9 times the weight of the brain, thereby preparing 10% brain homogenate. The quantity of cortisol in the brain homogenate was determined by ELISA, and the inhibition rate resulting from the test substance was calculated, under the condition that the amount of cortisol produced from the mouse orally administered with 0.5% methyl cellulose was regarded as 100%.

T1 sequence (P28845 whole entry): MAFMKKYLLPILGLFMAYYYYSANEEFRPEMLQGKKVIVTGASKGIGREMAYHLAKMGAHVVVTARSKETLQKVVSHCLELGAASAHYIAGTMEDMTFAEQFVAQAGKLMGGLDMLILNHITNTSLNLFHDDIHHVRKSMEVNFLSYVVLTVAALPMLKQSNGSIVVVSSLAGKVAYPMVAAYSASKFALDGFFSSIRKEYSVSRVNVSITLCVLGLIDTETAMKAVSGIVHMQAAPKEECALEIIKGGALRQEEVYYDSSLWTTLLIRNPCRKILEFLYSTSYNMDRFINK

SMILES | IC50 [1] [µM] | IC50 [2] [µM] | other results
O=C(c1ccc(-c2c(F)cccc2F)cc1)N(C1CC1)C1CCc2[nH]ncc2C1 (stereo not shown) [Example 216] | 0.043 | – | –
N#Cc1cccc(F)c1-c1ccc(C(=O)N(C2CC2)C2CCc3[nH]ncc3C2)cc1 (single isomer, unassigned; (-)) [Example 7-1, (−)-2′-cyano-N-cyclopropyl-6′-fluoro-N-(4,5,6,7-tetrahydro-1H-indazol-5-yl)biphenyl-4-carboxamide] | 0.018 | > 3 | Dose improving minimum spontaneous alternation rate [3]: 1.0 mg/kg; Improvement rate % (applied dose) [4]: 52 (1 mg/kg) %; Maximum improvement rate % (applied dose) [5]: 82 (10 mg/kg) %
CC(C)Cc1ccc(C(=O)N(C2CC2)C2CCc3[nH]ncc3C2)cc1 (stereo not shown) [Example 237] | 0.04 | – | –
N#Cc1ccccc1-c1ccc(C(=O)N(C2CC2)C2CCc3[nH]ncc3C2)cc1 (stereo not shown) [Example 1, 2′-cyano-N-cyclopropyl-N-(4,5,6,7-tetrahydro-1H-indazol-5-yl)biphenyl-4-carboxamide] | 0.048 | > 30 | –
N#Cc1cc(F)ccc1-c1ccc(C(=O)N(C2CC2)C2CCc3[nH]ncc3C2)cc1 (stereo not shown) [Example 176] | 0.088 | – | –
CC(C)Oc1ccc(C(=O)N(C2CC2)C2CCc3[nH]ncc3C2)cc1 (single isomer, unassigned; (-)) [Example 8-1, (−)-N-cyclopropyl-4-isopropoxy-N-(4,5,6,7-tetrahydro-1H-indazol-5-yl)benzamide] | 0.026 | > 30 | Dose improving minimum spontaneous alternation rate [3]: 0.3 mg/kg; Improvement rate % (applied dose) [4]: 73 (1 mg/kg) %; Maximum improvement rate % (applied dose) [5]: 104 (10 mg/kg) %; concentration at 1 h ([6]; plasma, read-out: concentration of the substance in the plasma): 153 ng/mL; concentration at 1 h ([6]; brain homogenate, read-out: concentration in the brain): 58 ng/mL; inhibition at 1 mg/kg [7]: 43%
COc1cc(OC(C)C)ccc1C(=O)N(C1CC1)C1CCc2[nH]ncc2C1 (stereo not shown) [Example 5, N-cyclopropyl-4-isopropoxy-2-methoxy-N-(4,5,6,7-tetrahydro-1H-indazol-5-yl)benzamide] | 0.056 | – | –
COc1ccc(C(=O)N(C2CC2)C2CCc3[nH]ncc3C2)c2ccn(C)c12 (stereo not shown) [Example 132] | 0.038 | > 30 | –
O=C(c1ccc(-c2c(F)cncc2F)cc1)N(C1CC1)C1CCc2n[nH]cc2C1 (stereo not shown) [Example 228] | 0.053 | – | –
CC(F)(F)CCCn1ncc2c(C(=O)N(C3CC3)C3CCc4[nH]ncc4C3)cccc21 (stereo not shown) [Example 159] | 0.04 | > 30 | –
Cc1cc(C(=O)N(C2CC2)C2CCc3n[nH]cc3C2)c(C)n1Cc1ccc(F)cc1F (stereo not shown) [Example 30] | 0.028 | > 3 | –
Cn1ccc2c(C(=O)N(C3CC3)C3CCc4[nH]ncc4C3)cccc21 (stereo not shown) [Example 81] | 0.024 | > 30 | –
N#Cc1ccccc1-c1ccc(C(=O)N(C2CC2)C2CCc3[nH]ncc3C2)c(F)c1 (stereo not shown) [Example 190] | 0.025 | – | –
O=C(c1ccc(-c2ccccc2F)o1)N(C1CC1)C1CCc2[nH]ncc2C1 (stereo not shown) [Example 27] | 0.062 | > 3 | –
